Data published in patent US9688681B2, “Heterocyclic compounds as pest control agents” (BAYER CROPSCIENCE AKTIENGESELLSCHAFT, priority 2013, dated 2017).
Read-outs that look alike come from different tables or passages of the source.

Key:
[1] = log P by HPLC on reversed-phase C18 columns (OECD Guideline 117); format: physicochemical; settings: for chromatographic logP: reversed-phase C18 HPLC column
[2] = test system: green peach aphid (Myzus persicae); settings: application rate 20 ppm, after 6 days, bell pepper plants sprayed to runoff
Protocol: Myzus persicae—Spray Test
Solvent: 7 parts by weight of dimethylformamide
Emulsifier: alkylaryl polyglycol ether
To produce an appropriate active ingredient formulation, 1 part by weight of active ingredient is dissolved using the specified parts by weight of solvent and made up with water containing an emulsifier concentration of 1000 ppm until the desired concentration is attained. To produce further test concentrations, the preparation is diluted with emulsifier-containing water. If the addition of ammonium salts or/and penetrants is required, these are each added in a concentration of 1000 ppm to the formulation solution.
After 6 days, the kill in % is determined. 100% means that all the aphids have been killed; 0% means that no aphids have been killed.

[3] = test system: green peach aphid (Myzus persicae); test: Myzus persicae spray test on Chinese cabbage leaf discs; format: in vivo; settings: application rate 500 g/ha, after 6 days
Excerpt: Discs of Chinese cabbage leaves (Brassica pekinensis) infested by all stages of the green peach aphid (Myzus persicae) are sprayed with an active ingredient formulation of the desired concentration.

[4] = test system: southern root-knot nematode (Meloidogyne incognita); settings: application rate 20 ppm, after 14 days, lettuce in sand
Protocol: Meloidogvne incognita Test (MELGIN)
Solvent: 125.0 parts by weight of acetone
To produce an appropriate active ingredient formulation, 1 part by weight of active ingredient is mixed with the specified amounts of solvent and the concentrate is diluted to the desired concentration with water.
Vessels are filled with sand, active ingredient solution, an egg/larvae suspension of the southern root-knot nematode (Meloidogyne incognita) and lettuce seeds. The lettuce seeds germinate and the plants develop.
After 14 days, the nematicidal efficacy in % is determined by the formation of galls.

[5] = HPLC RP C18, acidic range pH 2.7, 0.1% aqueous formic acid/acetonitrile
[6] = HPLC RP C18, neutral range pH 7.8, 0.001 molar aqueous ammonium hydrogencarbonate/acetonitrile
[7] = pH 2.7, HPLC RP C18, acidic range pH 2.7, 0.1% aqueous formic acid/acetonitrile, read-out: logP[a]
[8] = pH 7.8, HPLC RP C18, neutral range pH 7.8, 0.001 molar aqueous ammonium hydrogencarbonate/acetonitrile, read-out: logP[b]

| SMILES | logP[a] [1, 5] | logP[b] [1, 6] | efficacy (aphids killed) [3] | further results |
| --- | --- | --- | --- | --- |
| CSCCn1cnc2nn(-c3cccnc3)cc2c1=O [compound 27] | 1.13 | 1.19 | – | efficacy (kill) [2]: 90% |
| O=c1c2cn(-c3cccnc3)nc2ncn1CC(F)(F)F [compound 12] | 1.27 | – | 100% | – |
| CCn1cnc2nn(-c3cccnc3)cc2c1=O [compound 16, 5-Ethyl-2-(pyridin-3-yl)-2,5-dihydro-4H-pyrazolo[3,4-d]pyrimidin-4-one] | – | – | 100% | chromatographic logP [1, 7]: 0.7; chromatographic logP [1, 8]: 0.84 |
| O=c1c2cn(-c3cccnc3)nc2ncn1CC1CCCO1 (stereo not shown) [compound 17] | 1.07 | 1.12 | 100% | – |
| CC(c1ccccn1)n1cnc2nn(-c3cccnc3)cc2c1=O (stereo not shown) [compound 21] | 1.13 | 1.32 | 90% | – |
| O=c1c2cn(-c3cccnc3)nc2ncn1-c1ccc(Cl)cc1 [compound 14] | 1.74 | – | 90% | nematicidal efficacy (formation of galls) [4]: 100% |
| CC(C)n1cnc2nn(-c3cncnc3)cc2c1=O [compound 37] | – | – | 100% | logP[a] ([1]; pH 2.7): 0.93; logP[b] ([1]; pH 7.8): 0.92 |
| CCOC(=O)Cn1cnc2nn(-c3cccnc3)cc2c1=O [compound 19] | 0.98 | 1.09 | 100% | – |
| O=c1c2cn(-c3cccnc3)nc2ncn1CC1CC1 [compound 33] | 1.23 | 1.27 | 100% | – |
| O=c1c2cnn(-c3cccnc3)c2ncn1Cc1ncccn1 [compound 5] | – | – | 90% | logP[a] ([1]; pH 2.7): 0.80; logP[b] ([1]; pH 7.8): 0.91 |
| CCn1c(C)nc2nn(-c3cccnc3)cc2c1=O [compound 29, 5-Ethyl-6-methyl-2-(pyridin-3-yl)-2,5-dihydro-4H-pyrazolo[3,4-d]pyrimidin-4-one] | – | – | 90% | chromatographic logP [1, 7]: 0.93; chromatographic logP [1, 8]: 1.03 |
| O=c1c2cn(-c3cccnc3)nc2ncn1-c1ccccc1 [compound 10] | 1.40 | – | 90% | – |
| O=c1c2cn(-c3cccnc3)nc2ncn1C1CC1 [compound 23] | 0.79 | 0.83 | 100% | – |
| Cc1nc2nn(-c3cccnc3)cc2c(=O)n1C(C)C [compound 28] | 1.28 | 1.35 | 90% | – |
| CSCC(C)n1cnc2nn(-c3cccnc3)cc2c1=O (stereo not shown) [compound 31] | 1.36 | 1.40 | – | efficacy (kill) [2]: 95% |
